Experimental data published in the NIST ThermoML archive (doi:10.1021/acs.jced.8b00908).
Numbers after ± are expanded uncertainties. Each block holds one molecule with its values, some of them ahead of it.

Conditions: Liquid, Ebulliometric method (Recirculating still)

SMILES: C=CCO [2-propenol]
vapor or sublimation pressure (369.94 K): 101.3 ± 3.5 kPa

vapor or sublimation pressure (350.28 K): 101.3 ± 3.5 kPa
SMILES: CCOC(C)=O [ethyl acetate]

vapor or sublimation pressure (352.47 K): 101.3 ± 3.5 kPa
SMILES: CCC(=O)OC [methyl propanoate]

vapor or sublimation pressure (334.12 K): 101.3 ± 3.5 kPa
SMILES: ClC(Cl)Cl [trichloromethane]
